Key:
[1] = Badiou et al. 2005; cited from earlier work
[2] = Body weight and food intake in rats on MR diet with or without L-cysteine, 3 weeks; format: in vivo, rat; conditions: L-cysteine 5 g/kg added to MR diet, preliminary
Excerpt: To distinguish the effect of cysteine on body weight from that of methionine, the same experiment described above was repeated with addition of a third group. In addition to the methionine restricted (MR) and control groups, a third group was included comprising rats fed an MR diet supplemented with L-cysteine at a concentration of 5 g/kg diet. Age of the rats at the start of experiment, housing conditions and MR and control diets were similar to those in the above experiment. Food and water were provided ad libitum. Each group consisted of 8 rats; there was no significant difference in body weight between the 3 groups at baseline.

gene for CGL = conditions: by inhibition of the ERK/Sp1 signalling pathway; Fiorucci et al 2005; cited from earlier work
[3] = humans, concentration-dependent; Smith et al 2003; cited from earlier work
[4] = target: cystathionine γ-lyase (CGL) (Homo sapiens, UniProt P32929); conditions: Steegborn et al J Biol Chem 1999; cited from earlier work
Sequence of cystathionine γ-lyase (CGL) (P32929 whole entry): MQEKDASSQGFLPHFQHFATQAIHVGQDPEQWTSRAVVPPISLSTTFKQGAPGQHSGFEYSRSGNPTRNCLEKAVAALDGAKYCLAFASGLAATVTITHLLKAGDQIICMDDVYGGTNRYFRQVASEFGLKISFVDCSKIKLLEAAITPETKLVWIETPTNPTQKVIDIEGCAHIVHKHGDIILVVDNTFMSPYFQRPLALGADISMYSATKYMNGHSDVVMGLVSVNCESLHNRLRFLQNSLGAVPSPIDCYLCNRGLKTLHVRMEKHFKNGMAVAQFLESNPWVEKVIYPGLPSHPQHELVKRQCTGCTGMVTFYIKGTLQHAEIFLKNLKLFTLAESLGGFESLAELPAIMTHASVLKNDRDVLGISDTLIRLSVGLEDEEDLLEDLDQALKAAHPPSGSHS

CC1(C)C[C@@H]1C(=O)N/C(=C\CCCCSC[C@H](N)C(=O)O)C(=O)O [Cilastatin, cilastatin]
plasma cysteine levels [1]: lowers plasma cysteine levels

N[C@@H](CS)C(=O)O [L-cysteine]
effect on weight gain of MR rats [2]: prevented the decrease in weight gain

CC(=O)Oc1ccccc1C(=O)O [aspirin]
expression of the gene for CGL (gene for CGL): reduce expression

COc1ccc2c(c1)c(CC(=O)O)c(C)n2C(=O)c1ccc(Cl)cc1 [indomethacin]
expression of the gene for CGL (gene for CGL): reduce expression

CC(C(=O)O)c1cccc(C(=O)c2ccccc2)c1 (stereo not shown) [ketoprofen]
expression of the gene for CGL (gene for CGL): reduce expression

O=S(=O)(O)CCS [mesna]
plasma level of cysteine [3]: markedly reduces

C#CCC(N)C(=O)O (stereo not shown) [propargylglycine]
inhibition of CGL enzyme activity [4]: potent inhibitors

From patent publication US20140212407A1, “TREATMENT OF OBESITY” (Isis Innovation Limited, priority 2008, published 2014)
